Test results: article PMC8563902, “N^1-methyladenosine methylation in tRNA drives liver tumourigenesis by regulating cholesterol metabolism” (Nature Communications, 2021)

Biological target: TRMT6/TRMT61A complex (Homo sapiens, UniProt Q96FX7+Q9UJA5)
Test: screen for block of TRMT6/TRMT61A interaction in vitro; m1A by LC-MS/MS in treated PLC/PRF/[…] cells
Assay type: cell-based
Details: blocks subunit interaction (method not described); m1A read in cells treated at the proliferation IC50

TRMT6/TRMT61A complex, sequence (Q96FX7 2-289): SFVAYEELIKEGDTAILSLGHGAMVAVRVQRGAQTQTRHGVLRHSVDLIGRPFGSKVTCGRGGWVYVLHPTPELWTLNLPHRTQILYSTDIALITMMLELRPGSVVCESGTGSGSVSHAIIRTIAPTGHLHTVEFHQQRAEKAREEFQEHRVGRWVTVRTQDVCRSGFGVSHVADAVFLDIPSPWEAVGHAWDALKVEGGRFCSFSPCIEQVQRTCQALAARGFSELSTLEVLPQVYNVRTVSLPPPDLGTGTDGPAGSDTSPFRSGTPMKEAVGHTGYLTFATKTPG
TRMT6/TRMT61A complex, sequence (Q9UJA5 whole entry): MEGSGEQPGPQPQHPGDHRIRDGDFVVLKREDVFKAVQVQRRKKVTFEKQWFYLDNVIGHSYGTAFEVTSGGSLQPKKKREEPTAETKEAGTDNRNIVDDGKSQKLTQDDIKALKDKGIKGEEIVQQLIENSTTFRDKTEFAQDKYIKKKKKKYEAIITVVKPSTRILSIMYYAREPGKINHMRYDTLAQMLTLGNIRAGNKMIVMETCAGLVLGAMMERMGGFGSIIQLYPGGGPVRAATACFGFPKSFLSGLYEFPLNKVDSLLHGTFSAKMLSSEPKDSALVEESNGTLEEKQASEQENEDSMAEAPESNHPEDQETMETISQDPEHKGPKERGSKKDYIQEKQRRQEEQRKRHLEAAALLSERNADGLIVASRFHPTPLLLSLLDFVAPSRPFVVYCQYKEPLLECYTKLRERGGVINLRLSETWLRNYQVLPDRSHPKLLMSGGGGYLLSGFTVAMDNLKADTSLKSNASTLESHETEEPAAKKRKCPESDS

With `CN(C)C(=S)SSC(=S)N(C)C` [thiram] as the compound, how does the “screen for block of TRMT6/TRMT61A interaction in vitro; m1A by LC-MS/MS in treat” value read?
The value was “thiram acts as an efficient inhibitor against TRMT6/TRMT61A complex”.
